Four compounds from patent US20220387608A1, “ADRENOMEDULLIN-ANALOGUES FOR LONG-TERM STABILIZATION AND THEIR USE” (Bayer Aktiengesellschaft, priority 2019, published 2022) can be followed below.

Positions of bridges follow the written chain, without caps; N, C: chain ends. Non-standard residues stand in square brackets, D forms with d. Residues, ends and D or L forms follow the SMILES beside them. *: point of attachment. C18 diacid = O=C(O)CCCCCCCCCCCCCCCCC(=O)*; PEG5 = NCCOCCOCCOCCOCCOCCC(=O)O; PEG4 = NCCOCCOCCOCCOCCC(=O)O

The test has as its target T1, AM1R (Homo sapiens, UniProt O60895+Q16602).
T1 construct: EYFP; ECFP; expressed in transfected cells; host or cells: HEK-293 (transient co-transfection)
The test is described as follows: Activity determination in vitro: cAMP/CRE-luciferase reporter assay in HEK293 cells transiently co-transfected with CLR and RAMP2. It counts as cell-based. The conditions noted are these: for Emax: HEK293, normalized to [G14]ADM(14-52); for EC50: HEK293 with CLR/RAMP2, CRE-luciferase, 3 h stimulation. Here is the method: (1a) Activity Determination of Adrenomedullin Analogues in vitro
Cell Culture HEK-293 cells (human embryonic kidney cells) were cultured in Ham's F-12/DMEM (1/1; v/v) containing 15% FCS under humidified atmosphere at 37° C. and 5% CO2 in 75 cm^2 cell culture flasks.
Cells were cultured in 75 cm^2 flasks to 70-80% confluency. 45 μl Metafectene® Pro was diluted in 900 ρl Ham's F-12/DMEM (1/1; v/v) and incubated for 20 min at room temperature. 9 μg plasmid containing DNA of CLR fused to EYFP and 3 μg plasmid containing DNA of RAMP2 fused to ECFP were dissolved in 900 μl Ham's F-12/DMEM (1/1; v/v). The plasmid solution was mixed with the Metafectene® Pro solution and incubated for 25 min at room temperature. Medium was removed from the cells and replaced by 6 m1 Ham's F-12/DMEM (1/1; v/v) containing 15% FCS. After addition of transfection solution the cells were incubated for 3 h under humidified atmosphere at 37° C. and 5% CO2. For the second transfection 45 μl Metafectene® Pro was diluted in 900 μl Ham's F-12/DMEM (1/1; v/v) and incubated for 20 min at room temperature. 12 μg of pGL4.29[Luc2P/CRE/Hygro] plasmid containing DNA for the luciferase reporter gene luc2P (with CRE promotor region) were dissolved in 900 μl Ham's F-12/DMEM (1/1; v/v). The plasmid solution was mixed with the Metafectene® Pro solution and incubated for 25 min at room temperature. Medium was removed from the cells and replaced by 6 m1 Ham's F-12/DMEM (1/1; v/v) containing 15% FCS. After addition of transfection solution, the cells were incubated under humidified atmosphere at 37° C. and 5% CO2 over night.
For coating of 96-well-plates, 50 μl of a poly-D-lysine solution in DPBS (0.1 mg/ml) were pipetted in each well and incubated for 40 min. After removal of poly-D-lysine, each well was washed with 50 μl DPBS. Transiently transfected cells were detached from the cell culture flask by removal of the medium, 2-fold washing with 5 m1 DPBS and resuspending in 40 m1 Ham's F-12/DMEM (1/1; v/v) containing 15% FCS. 90,000 to 120,000 cells in 150 μl Ham's F-12/DMEM (1/1; v/v) containing 15% FCS were seeded per well and the plates were incubated under humidified atmosphere at 37° C. and 5% CO2 over night.
For each ligand, a serial dilution with eight different concentrations was prepared using Ham's F^12/DMEM (1/1; v/v). Before stimulation, the medium on the cells was replaced by 100 μl Ham's F^12/DMEM (1/1; v/v) and the plates were incubated for 1 h under humidified atmosphere at 37° C. and 5% CO2. For stimulation, the medium was removed and the cells were incubated for 3 h in 80 μl of ligand-solution under humidified atmosphere at 37° C. and 5% CO2. In addition 80 μl of a 5 μM forskolin solution in Ham's F-12/DMEM (1/1; v/v) was used as a positive control and 80 μl of Ham's F-12/DMEM (1/1; v/v) as a negative control. Each concentration and the controls were tested as triplicates.
After 3 h of stimulation, the solutions were removed and the cells were washed with 50 μl of Ham's F-12/DMEM (1/1; v/v) perwell. After 10 m incubation in 30 μl of Ham's F-12/DMEM (1/1; v/v) at room temperature, 30 μl of luciferase-solution (ONE-Glo™ Luciferase Assay System) was added and the luminescence was directly measured using an Infinite M200 (Tecan).
Data analysis of the luminescence measurement was carried out with GraphPad Prism 5. Therefore, the measured luminescence values of each plate were first corrected on the base of the respective average of forskolin stimulation. Afterwards they were normalized to [G14]ADM(14-52), which was used as standard peptide in every assay. After correction and normalization, data was analyzed using non-linear regression giving dose-response curves for each tested ligand.

T1 sequence (Q16602 23-461): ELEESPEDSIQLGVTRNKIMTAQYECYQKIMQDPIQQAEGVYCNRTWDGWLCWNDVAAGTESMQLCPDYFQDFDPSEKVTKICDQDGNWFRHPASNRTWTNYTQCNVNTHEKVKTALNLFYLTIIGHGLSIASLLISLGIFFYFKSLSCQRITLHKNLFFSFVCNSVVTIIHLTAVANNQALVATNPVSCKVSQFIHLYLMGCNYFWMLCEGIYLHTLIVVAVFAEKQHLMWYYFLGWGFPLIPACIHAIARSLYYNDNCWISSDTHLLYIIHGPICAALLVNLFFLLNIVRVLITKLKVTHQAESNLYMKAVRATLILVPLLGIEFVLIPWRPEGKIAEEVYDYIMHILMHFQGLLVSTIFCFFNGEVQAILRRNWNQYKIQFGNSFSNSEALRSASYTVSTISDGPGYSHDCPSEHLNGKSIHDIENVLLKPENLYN
T1 sequence (O60895 43-175): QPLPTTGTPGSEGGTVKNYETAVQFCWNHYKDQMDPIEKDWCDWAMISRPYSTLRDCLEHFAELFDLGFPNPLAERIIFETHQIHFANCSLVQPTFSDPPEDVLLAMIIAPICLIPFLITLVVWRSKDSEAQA

In turn, `CC[C@H](C)[C@H](NC(=O)[C@H](CCC(N)=O)NC(=O)[C@H](Cc1c[nH]cn1)NC(=O)[C@H](C)NC(=O)[C@H](CC(C)C)NC(=O)[C@H](CCCCN)NC(=O)[C@H](CCC(N)=O)NC(=O)[C@@H](NC(=O)[C@@H](NC(=O)[C@@H]1CSSC[C@H](NC(=O)CNC(=O)CN)C(=O)N[C@@H](CCCNC(=N)N)C(=O)N[C@@H](Cc2ccccc2)C(=O)NCC(=O)N[C@@H]([C@@H](C)O)C(=O)N1)[C@@H](C)O)C(C)C)C(=O)N[C@@H](Cc1ccc(O)cc1)C(=O)N[C@@H](CCC(N)=O)C(=O)N[C@@H](Cc1ccccc1)C(=O)N[C@H](C(=O)N[C@@H](CC(=O)O)C(=O)NCCOCCOCCOCCOCCC(=O)N[C@H](C(=O)N[C@@H](C)C(=O)N1CCC[C@H]1C(=O)N[C@@H](CCCNC(=N)N)C(=O)N[C@@H](CO)C(=O)N[C@@H](CCCCN)C(=O)N[C@H](C(=O)N[C@@H](CO)C(=O)N1CCC[C@H]1C(=O)N[C@@H](CCC(N)=O)C(=O)NCC(=O)N[C@@H](Cc1ccc(O)cc1)C(N)=O)[C@@H](C)CC)C(C)C)[C@@H](C)O` [Example 10, ((4R,7S,13S,16S,19R)-19-(2-(2-aminoacetamido)acetamido)-13-benzyl-16-(3-guanidinopropyl)-7-((R)-1-hydroxyethyl)-6,9,12,15,18-pentaoxo-1,2-dithia-5,8,11,14,17-pentaazacycloicosane-4-carbonyl)-L-threonyl-ADM(23-35)-(1-(λ^2-azaneyl)-3,6,9,12-tetraoxapentadecan-15-oyl)-L-valyl-ADM(42-52)] (H-GGCRFGTCTVQKLAHQIYQFTD[PEG4]VAPRSKISPQGY-NH2; disulfide 3-8) came in with an Emax of 77 ± 3% and an EC50 of 81 nM.
In turn, `CC[C@H](C)[C@H](NC(=O)[C@H](CCC(N)=O)NC(=O)[C@H](Cc1c[nH]cn1)NC(=O)[C@H](C)NC(=O)[C@H](CC(C)C)NC(=O)[C@H](CCCCN)NC(=O)[C@H](CCC(N)=O)NC(=O)[C@@H](NC(=O)[C@@H](NC(=O)[C@@H]1CSSC[C@H](NC(=O)CNC(=O)CN)C(=O)N[C@@H](CCCNC(=N)N)C(=O)N[C@@H](Cc2ccccc2)C(=O)NCC(=O)N[C@@H]([C@@H](C)O)C(=O)N1)[C@@H](C)O)C(C)C)C(=O)N[C@@H](Cc1ccc(O)cc1)C(=O)N[C@@H](CCC(N)=O)C(=O)N[C@@H](Cc1ccccc1)C(=O)N[C@H](C(=O)NCCOCCOCCOCCOCCOCCC(=O)N[C@H](C(=O)N[C@@H](C)C(=O)N1CCC[C@H]1C(=O)N[C@@H](CCCNC(=N)N)C(=O)N[C@@H](CO)C(=O)N[C@@H](CCCCN)C(=O)N[C@H](C(=O)N[C@@H](CO)C(=O)N1CCC[C@H]1C(=O)N[C@@H](CCC(N)=O)C(=O)NCC(=O)N[C@@H](Cc1ccc(O)cc1)C(N)=O)[C@@H](C)CC)C(C)C)[C@@H](C)O` [Example 11, ((4R,7S,13S,16S,19R)-19-(2-(2-aminoacetamido)acetamido)-13-benzyl-16-(3-guanidinopropyl)-7-((R)-1-hydroxyethyl)-6,9,12,15,18-pentaoxo-1,2-dithia-5,8,11,14,17-pentaazacycloicosane-4-carbonyl)-L-threonyl-ADM(23-34)-(1-(λ^2-azaneyl)-3,6,9,12,15-pentaoxaoctadecan-18-oyl)-L-valyl-ADM(42-52)] (H-GGCRFGTCTVQKLAHQIYQFT[PEG5]VAPRSKISPQGY-NH2; disulfide 3-8) displayed an Emax of 94 ± 2% and an EC50 of 39 nM.
As to `CC[C@H](C)[C@H](NC(=O)[C@H](CCC(N)=O)NC(=O)[C@H](Cc1c[nH]cn1)NC(=O)[C@H](C)NC(=O)[C@H](CC(C)C)NC(=O)[C@H](CCCCN)NC(=O)[C@H](CCC(N)=O)NC(=O)[C@@H](NC(=O)[C@@H](NC(=O)[C@@H]1CSSC[C@H](NC(=O)CNC(=O)CN)C(=O)N[C@@H](CCCNC(=N)N)C(=O)N[C@@H](Cc2ccccc2)C(=O)NCC(=O)N[C@@H]([C@@H](C)O)C(=O)N1)[C@@H](C)O)C(C)C)C(=O)N[C@@H](Cc1ccc(O)cc1)C(=O)N[C@@H](CCC(N)=O)C(=O)N[C@@H](Cc1ccccc1)C(=O)N[C@H](C(=O)N[C@@H](CC(=O)O)C(=O)NCCOCCOCCOCCOCCOCCC(=O)N[C@@H](C)C(=O)N1CCC[C@H]1C(=O)N[C@@H](CCCNC(=N)N)C(=O)N[C@@H](CO)C(=O)N[C@@H](CCCCN)C(=O)N[C@H](C(=O)N[C@@H](CO)C(=O)N1CCC[C@H]1C(=O)N[C@@H](CCC(N)=O)C(=O)NCC(=O)N[C@@H](Cc1ccc(O)cc1)C(N)=O)[C@@H](C)CC)[C@@H](C)O` [Example 12, ((4R,7S,13S,16S,19R)-19-(2-(2-aminoacetamido)acetamido)-13-benzyl-16-(3-guanidinopropyl)-7-((R)-1-hydroxyethyl)-6,9,12,15,18-pentaoxo-1,2-dithia-5,8,11,14,17-pentaazacycloicosane-4-carbonyl)-L-threonyl-ADM(23-35)-(1-(λ^2-azaneyl)-3,6,9,12,15-pentaoxaoctadecan-18-oyl)-L-alanyl-ADM(43-52)] (H-GGCRFGTCTVQKLAHQIYQFTD[PEG5]APRSKISPQGY-NH2; disulfide 3-8), the Emax worked out at 79 ± 5% and the EC50 stood at 431 nM.
In the same order, the values of `CC[C@H](C)[C@H](NC(=O)[C@H](CCC(N)=O)NC(=O)[C@H](Cc1c[nH]cn1)NC(=O)[C@H](C)NC(=O)[C@H](CC(C)C)NC(=O)[C@H](CCCCN)NC(=O)[C@H](CCC(N)=O)NC(=O)[C@@H](NC(=O)[C@@H](NC(=O)[C@@H]1CSSC[C@H](NC(=O)CNC(=O)[C@@H](N)CCCCNC(=O)CCCCCCCCCCCCCCCCC(=O)O)C(=O)N[C@@H](CCCNC(=N)N)C(=O)N[C@@H](Cc2ccccc2)C(=O)NCC(=O)N[C@@H]([C@@H](C)O)C(=O)N1)[C@@H](C)O)C(C)C)C(=O)N[C@@H](Cc1ccc(O)cc1)C(=O)N[C@@H](CCC(N)=O)C(=O)N[C@@H](Cc1ccccc1)C(=O)N[C@H](C(=O)N[C@@H](CC(=O)O)C(=O)N[C@@H](CCCCN)C(=O)N[C@@H](CC(=O)O)C(=O)N[C@@H](CCCCN)C(=O)N[C@@H](CC(=O)O)C(=O)N[C@@H](CC(N)=O)C(=O)N[C@H](C(=O)N[C@@H](C)C(=O)N1CCC[C@H]1C(=O)N[C@H]1CCCCNC(=O)C[C@@H](C(=O)N2CCC[C@H]2C(=O)N[C@@H](CCC(N)=O)C(=O)NCC(=O)N[C@@H](Cc2ccc(O)cc2)C(N)=O)NC(=O)[C@H]([C@@H](C)CC)NC(=O)[C@H](CCCCN)NC(=O)[C@H](CO)NC1=O)C(C)C)[C@@H](C)O` [Example 13] (H-K(C18 diacid)GCRFGTCTVQKLAHQIYQFTDKDKDNVAPKSKIDPQGY-NH2; disulfide 3-8; lactam 31-35) are 94 ± 7% and 2.6 nM.

In general, Emax refers to the size of the effect at its maximum, as opposed to the concentration needed. As a reminder, the EC50 is the concentration giving half of the maximal effect.
